Measurements published in US11123362B2, “Compositions and methods to affect skin irritation” (ALUMEND, LLC, priority 2015, dated 2021).

Assays:
[1] = test system: IL-1α secretion, human epidermal equivalents (EPI-200); experiment: IL-1α levels 24 hr post-exposure, retinoids, ELISA (Example 2); type: cell-based; details: 5% SDS, Positive Control
Procedure: Retinoids were dissolved in one of two vehicles: […] […] A Bio-Tek microplate reader and KC4 software were used for sample analysis.

[2] = test system: IL-1α secretion, human epidermal equivalents (EPI-200); experiment: IL-1α secretion upon chymotrypsin exposure (Example 5, diaper rash irritation); type: cell-based
Procedure: (§1) Modified chitosan (1%) alone was also included.
(§2) IL-1α secretion was analyzed using the Human IL-1α ELISA Duo Set (R&D Systems, cat# DY200, Lot 1353857). A Bio-Tek microplate reader and KC4 software were used for sample analysis.
(§3) The method is described in Example 1. Test articles included Chymotrypsin (0.005, 0.01 and 0.02%), with and without modified chitosan (1%). Chymotrypsin is the major fecal irritant enzyme that initiates diaper rash.

[3] = test system: three-dimensional human epidermal equivalents (EPI-200); experiment: In Vitro Skin Irritation Test, MTT tissue viability upon SDS exposure (Example 1); details: for mean of viability [%]: 60 minute exposure, MTT after 42 hr
Procedure: An In Vitro Skin Irritation Test was performed according to OCED guidelines. Irritant materials are identified by their ability to decrease cell viability below a defined threshold level of 50%. Moreover, if the cytotoxic effect is absent or weak, a quantifiable amount of inflammatory mediators (e.g. IL-1α) is released by the epidermis and may be used in a tiered approach to increase the sensitivity of the test.
Test materials (30 μl) were topically applied onto three-dimensional human epidermal equivalents (EPI-200 from MatTek, Ashland, Mass.), n=3 tissues per treatment group. Test materials included a positive control irritant (5% sodium dodecyl sulfate, SDS), and a negative control (Phosphate Buffered Saline, PBS), and aqueous SDS solutions of 0.2, 0.4 and 0.6%, with or without the addition of modified chitosan (1%). Modified chitosan (1%) alone was also included.
After a 60 minute exposure, the tissues were rinsed with PBS and were transferred to fresh medium. After 24 hours, media was collected for IL-1α analysis and tissues were transferred to fresh media for an additional 18 hr to allow the toxic effect of irritant chemicals to develop. After the 42 hr post-exposure equilibration, media was again collected and tissue viability was determined using an MTT assay.

[4] = test system: three-dimensional human epidermal equivalents (EPI-200); experiment: In Vitro Skin Irritation Test, MTT tissue viability, retinoids (Example 2); type: cell-based; details: positive control irritant (5% SDS)
Procedure: Retinoids were dissolved in one of two vehicles: V1 (50% ethanol, 20% glycerin, 0.1% BHT, in PBS) or V2 (50% ethanol, 0.1% BHT, in PBS).

[5] = test system: IL-1α secretion, human epidermal equivalents (EPI-200); experiment: IL-1α secretion upon SDS exposure, ELISA (Example 1); type: cell-based; details: for IL-1α secretion, Avg: media at 24 hours
Procedure: as §2

[6] = test system: Epidermal equivalents (EPI-200); experiment: Visual observation of tissues after four days of daily retinol treatment (Example 3); type: cell-based; details: 1% retinol in vehicle, daily for four days
Procedure: Epidermal equivalents (EPI-200 from MatTek, Ashland, Mass.) were topically treated daily, for four days, with 30 μl of each test article, n=3 tissues per treatment group. Test articles were removed from the apical surface of the tissue daily by washing with PBS prior to reapplication of test article. Tissues were fed daily with 0.9 mL EPI-100-NMM. Tissues remained untreated, or treated with a vehicle (45% ethanol, 0.1% BHT, in PBS), without and with increasing concentrations of retinol (0.01-1%), with or without the addition of the modified chitosan (1%).

[7] = test system: IL-1α secretion, epidermal equivalents (EPI-200); experiment: IL-1α levels at 96 hr, daily retinol treatment, ELISA (Example 4); type: cell-based, human
Procedure: Epidermal equivalents (EPI-200 from MatTek, Ashland, Mass.) were topically treated daily, for four days, with 30 μl of each test article, n=3 tissues per treatment group. n=3 tissues were left untreated. Test articles were removed from the apical surface of the tissue daily by washing with PBS prior to reapplication of test article. […] Media was collected at 96 hour post treatment and IL-1α concentration was analyzed using the Human IL-1α ELISA Duo Set (R&D Systems, cat# DY200, Lot 1353857). A Bio-Tek microplate reader and KC4 software were used for sample analysis.

[8] = test system: three-dimensional human epidermal equivalents (EPI-200); experiment: Cell death upon chymotrypsin exposure (Example 5); type: cell-based; details: chymotrypsin 0.005-0.02%, one hour exposure
Text: as §1, §3

[9] = Untreated + Chymotrypsin (0.005%)
[10] = Untreated + Chymotrypsin (0.01%)
[11] = Untreated + Chymotrypsin (0.02%)

With `CCCCCCCCCCCCOS(=O)(=O)[O-].[Na+]` [SDS, sodium dodecyl sulfate] the “IL-1α levels 24 hr post-exposure, AVG” value [1] was greater than 524.6, the “IL-1α secretion, AVG” value ([2]; Positive Control (PC, 5% SDS)) was 394.114 and the “IL-1α secretion, tissue 1” value ([2]; Positive Control (PC, 5% SDS)) was 459.595. For the same molecule, the “IL-1α secretion, tissue 2” value ([2]; Positive Control (PC, 5% SDS)) was 384.839, the “IL-1α secretion, tissue 3” value ([2]; Positive Control (PC, 5% SDS)) was 337.908 and the “mean of viability [%]” value ([3]; 0.2% SDS) was 110.0%. For the same molecule, the “mean of viability [%]” value ([3]; 0.4% SDS) was 106.3%, the tissues dead ([3]; 0.6% SDS) was roughly 90% and the “mean of viability [%]” value ([3]; 0.6% SDS) was 13.8%. For the same molecule, the “mean of viability [%]” value ([3]; 5% SDS (PC)) was 11.1%, the viability [4] was “less than 10%” and the “IL-1α secretion, Avg” value ([5]; 0.2% SDS) was 151.98. For the same molecule, the “IL-1α secretion, Avg” value ([5]; 0.4% SDS) was 334.95, the “IL-1α secretion, Avg” value ([5]; 0.6% SDS) was 524.61 and the “IL-1α secretion, Avg” value ([5]; PC (5% SDS)) was 425.23. For the same molecule, the “IL-1α secretion” value ([5]; SDS exposure 0.2-0.6%) was “dose-dependent increase in IL-1α secretion”.

With `CC1=C(/C=C/C(C)=C/C=C/C(C)=C/CO)C(C)(C)CCC1` [retinol] the “visual observations at 96 hour post treatment” value [6] was “partially disintegrated”, the “IL-1α levels at 96 hr post-exposure, AVG” value ([7]; Vehicle + retinol (0.01%)) was 104.90 and the “IL-1α levels at 96 hr post-exposure, Tissue 1” value (“IL-1α levels … Tissue 1” below) ([7]; Vehicle + retinol (0.01%)) was 124.24. The “IL-1α levels at 96 hr post-exposure, Tissue 2” value (shortened to “IL-1α levels … Tissue 2”) ([7]; Vehicle + retinol (0.01%)) was 108.54, the “IL-1α levels at 96 hr post-exposure, Tissue 3” value (“IL-1α levels … Tissue 3” for short) ([7]; Vehicle + retinol (0.01%)) was 81.94 and the “IL-1α levels at 96 hr post-exposure, AVG” value ([7]; Vehicle + retinol (0.1%)) was 240.68. For the same molecule, the “IL-1α levels … Tissue 1” value ([7]; Vehicle + retinol (0.1%)) was 351.17, the “IL-1α levels … Tissue 2” value ([7]; Vehicle + retinol (0.1%)) was 108.86 and the “IL-1α levels … Tissue 3” value ([7]; Vehicle + retinol (0.1%)) was 262.00. The “IL-1α levels at 96 hr post-exposure, AVG” value ([7]; Vehicle + retinol (1%)) was 1020.46, the “IL-1α levels … Tissue 1” value ([7]; Vehicle + retinol (1%)) was 885.52 and the “IL-1α levels … Tissue 2” value ([7]; Vehicle + retinol (1%)) was 1097.75. The “IL-1α levels … Tissue 3” value ([7]; Vehicle + retinol (1%)) was 1078.11 and the “skin irritation by IL-1α secretion biomarker” value ([7]; retinol 0.01-1% in vehicle) was “induces skin irritation in a dose-responsive manner”.

With Chymotrypsin the “cell death” value [8] was “did not induce cell death”, the “IL-1α secretion, AVG” value [2, 9] was 65.279 and the “IL-1α secretion, tissue 1” value [2, 9] was 47.295. The “IL-1α secretion, tissue 2” value [2, 9] was 74.241, the “IL-1α secretion, tissue 3” value [2, 9] was 74.302 and the “IL-1α secretion, AVG” value [2, 10] was 66.405. For the same molecule, the “IL-1α secretion, tissue 1” value [2, 10] was 58.421, the “IL-1α secretion, tissue 2” value [2, 10] was 53.293 and the “IL-1α secretion, tissue 3” value [2, 10] was 87.502. For the same molecule, the “IL-1α secretion, AVG” value [2, 11] was 166.821, the “IL-1α secretion, tissue 1” value [2, 11] was 67.307 and the “IL-1α secretion, tissue 2” value [2, 11] was 353.378. The “IL-1α secretion, tissue 3” value [2, 11] was 79.779 and the “IL-1α secretion” value ([2]; chymotrypsin exposure 0.005-0.02%) was “dose-dependent increase in IL-1α secretion”.
